Laboratory results as given in BigSolDB 2.1.

O=C(NNC(=S)Nc1ccc(Cl)cc1)c1ccncc1
solubility (mole fraction)
Details | 298.15 K | 308.15 K | 318.15 K | 328.15 K | 338.15 K
in transcutol | 0.0423 | 0.0468 | 0.0514 | 0.0565 | 0.0607
in water | 5.17e-07 | 5.93e-07 | 7.05e-07 | 8.28e-07 | 9.75e-07
